Data set [1] in a line: Octanol-water partition coefficients by ICP-MS. Particulars: 1:1 water:1-octanol, 48 hours, Gd by ICP-MS. It counts as physicochemical. The procedure: Octanol-water partition coefficients (log P) were measured by ICP-MS to determine the hydrophilicity of the Pz-Gd(III) conjugates (4d, 18). The hydrophilicity of a molecule dictates cellular permeability where a balance in amphiphilicity is desired for ease of aqueous administration and maximum cellular uptake (19). Cu-Pz-Gd(III) is slightly more hydrophobic than Zn-Pz-Gd(III) and both conjugates are more hydrophobic than DOTA-Gd(III).
DOTA-Gd(I I I), Zn-Pz-Gd(III), and Cu-Pz-Gd(III) (0.5 mg) were dissolved in 1 mL of a 1:1 mixture of water:1-octanol, respectively. After shaking for 30 seconds, these tubes were placed on a rotator for gentle mixing to equilibrate for 48 hours. Gd(III) concentration in each layer was determined by ICP-MS. Partition coefficients were calculated from the equation log P=log(Co/Cw), where log P is the logarithm of the partition coefficient, Co is the concentration of Gd in the 1-octanol layer, and Cw is the concentration of Gd in the water layer.

In another data set the test system is MDA-MB-231 cells. The data set can be described thus: In vitro cellular uptake, Gd(III) content by ICP-MS. It counts as cell-based. Particulars: MDA-MB-231, 24 hours, compared with equivalent DOTA-Gd(III). On the procedure: Breast tumor cells (MDA-MB-231) were treated with M-Pz-Gd(III) complexes at varying concentrations for 24 hours, washed, digested in acid, and Gd(III) content was measured by ICP-M S (FIG. 1). An M-Pz-Gd(III) dose of 50 μM corresponds to an overall Gd(III) dose of 100 μM because two Gd(III) ions are present per molecule. Cells also were treated with an equivalent amount of DOTA-Gd(III), an agent known not to cross cell membranes.
After cell harvesting, an aliquot of the cell suspensions was mixed with Guava ViaCount reagent and allowed to stain at room temperature for at least 5.0 minutes (no longer than 20 minutes). Stained samples were vortexed for 10 seconds and counted. Percent cell viability was determined via manual analysis using a Guava EasyCyte Mini Personal Cell Analyzer (PCA) and ViaCount software module. For each sample, 1000 events were acquired with dilution factors that were determined based upon optimum machine performance (about 25-70 cells/μL).
Quantification of Gd was accomplished using ICP-MS of acid digested samples. Solution samples were digested in ACS reagent grade nitric acid (70%, Sigma, St. Louis, Mo., USA) and incubated in a water bath at 70° C. for at least 2 hours to allow for complete sample digestion. […]

Another data set can be described thus: Water solubility. The class given is physicochemical. The procedure:
The pz platform is diol pz 285, which was prepared and activated for nucleophilic substitution by arenesulfonylation to produce bis-tosylate pz 286 as previously described (13). Subsequent nucleophilic substitution of pz 286 with excess sodium azide gave diazide pz 288, which was suitable for conjugation via cycloaddition reactions with the alkyne-functionalized Gd595. (Scheme 1). The use of catalytic copper(II) sulfate in this conjugation reaction partially metallates the pz core. To address this issue, pz 288 either was metallated with ZnCl2 prior to reaction with the alkyne or a stoichiometric amount of the […] catalyst was used to ensure that the pz core was completely cuprated. Standard cycloaddition reaction conditions were subsequently used to conjugate metallated pz diazides with Gd595 to produce Zn-Pz-Gd(III) and Cu-Pz-Gd(III) conjugates, which were isolated by preparative HPLC in 52% and 57% isolated yields, respectively. Trace amounts of Zn-Pz-Gd(III) were transmetallated to Cu-Pz-Gd(III), but this small amount was removed during purification.

Data set [2] can be described thus: HPLC analysis of urine collected from mice. It counts as in vivo, athymic nude mice.

In general, log P refers to a log measure of how a compound divides between an organic and an aqueous phase.

Regarding “Cu[Pz(C19H28N8O7Gd)2]. Pz=18,21-bis(2-(1H-1,2,3-triazole-4-yl) ethoxy)-tris-[1,4-dioxino[g,l,q](2R,3R)-2,3-dimethoxy-2,3-dimethyll 25H,27H-benzo[b]porphyrazine; C19H28N8O7Gd=N-methyl-2-aminoacetamide-4,7,10-tris(carboxymethyl)-1,4,7,10-tetraazacyclododecylgadolinium(III)) [Cu-Pz-Gd(III)]”, the “log P” value in data set [1] is reported as −2.41. Further, in the data set with MDA-MB-231 cells, the “Cellular uptake, Gd(III) content per cell” value is “two-fold increase”. Further, the water solubility result in “Water solubility” is given as “freely water soluble”. For the same substance, the “form cleared in urine” value in data set [2] is “cleared intact”.

The values above are taken from US20160031909A1, “PORPHYRAZINE OPTICAL AND DUAL OPTICAL/ MR CONTRAST AND THERAPEUTIC AGENTS” (HOFFMAN/BARRETT, LLC, priority 2013, published 2016).
